Experimental data taken from US11661405B2, “Crystal forms of tetrahydro-n,n-dimethyl-2,2-diphenyl-3-furanmethanamine hydrochloride, processes of making such forms, and their pharmaceutical compositions” (ANAVEX LIFE SCIENCES CORP., priority 2015, dated 2023).

How the values were obtained:
[1] = system: amyloid toxicity (Aβ25-35); settings: cited from earlier work
[2] = system: PI3K neuroprotective pathway (P-Akt, P-GSK-3β), Tau, Aβ1-42; settings: cited from earlier work
[3] = storage stability of crystalline forms, checked by PXRD; assay type: physicochemical; settings: 40° C., 75% relative humidity, uncapped vessels, 1 week; forms from SCF in ethanol or dichloromethane
Source text: The present disclosure also provides a metabolite of tetrahydro-N,N-dimethyl-2,2-diphenyl-3-furanmethanamine hydrochloride, ANAVEX19-144. […] See for example J. of Psychopharmacol. 25(8), 1101-1117 (2011). Crystalline forms of ANAVEX19-144 were produced by placing the ANAVEX19-144 starting material in a solvent of ethanol or dichloromethane and processed by the supercritical fluid technique. The crystalline form of ANAVEX19-144 produced by the supercritical fluid technique under process parameters of 40 mg/mL ethanol solution, 200 bars of pressure, temperature of 80° C., supercritical CO2 solution with a flow rate of 20 g/min and a TS flow of 0.4 mL/min, was characterized by PXRD, FTIR, DSC, and SEM, as shown in FIGS. 12-15. […] The crystalline form of ANAVEX19-144 produced using the dichloromethane supercritical fluid technique produced a powder with better flow characteristics and improved flow properties for downstream processing. The two crystalline forms of ANAVEX19-144, produced according to the supercritical fluid technique in ethanol or dichloromethane were stored at 40° C. at 75% relative humidity in uncapped vessels for 1 week and then characterized by PXRD to determine stability of the two forms.

| Compound | oxidative stress, caspases induction, cellular loss and learning and memory deficits ([1]; mice one week after i.c.v. injection of oligomeric Aβ25-35) | neuroprotective potential against amyloid toxicity ([1]; mice) | Aβ25-35-induced P-Akt decrease and P-GSK-3β increase ([2]; Aβ25-35-induced) | Aβ25-35-induced endogenous Aβ1-42 seeding ([2]; Aβ25-35-induced) | hyperphosphorylation of Tau on physiological epitopes (AT-8 clone) and pathological epitopes (AT-100 clone) ([2]; in the dose-range tested) | stability of the two crystalline forms (PXRD after storage) [3] |
| --- | --- | --- | --- | --- | --- | --- |
| CN(C)CC1CCOC1(c1ccccc1)c1ccccc1.Cl (stereo not drawn) [ANAVEX2-73, tetrahydro-N,N-dimethyl-2,2-diphenyl-3-furanmethanamine hydrochloride] | attenuating | shows neuroprotective potential against amyloid toxicity | blocked | decrease | attenuated |  |
| CNCC1CCOC1(c1ccccc1)c1ccccc1.Cl (stereo not drawn) [ANAVEX19-144] |  |  |  |  |  | stable under the conditions tested |
